Each compound was assayed against recombinant human PI3Kγ (aa144-1102)-6His (Homo sapiens (Human), UniProt P48736) (assay: Test A: Enzymatic Activity Assay for Rec Human PI3Kγ (ADP-Glo)). Details: 20 μM ATP, 80 μM DiC8-PIP2, 1.2 nM PI3Kγ, 15 min pre-incubation, 60 min reaction.
Assay type: biochemical
Protocol: Pharmacological Activity Test A: Enzymatic Activity Assay for Rec Human PI3Kγ
The activity of recombinant human PI3Kγ (aa144-1102)-6His was determined by measuring the ADP level after phosphorylation of DiC8-PIP2 using a commercially available ADP-Glo™ kit from Promega. The assay was carried out in white low volume 384 well plates in a final volume of 14 μl at rt. The assay conditions contained the following: 50 mM Tris buffer pH 7.4, 2.1 mM DTT, 3 mM MgCl2, 0.05% CHAPS, 20 μM ATP, 80 μM DiC8-PIP2 and 1.2 nM PI3Kγ. […] Routinely, inhibitors were pre-incubated with 3 μl of PI3Kγ for 15 min prior to the addition of […] substrate mixture for a further 60 min enzyme reaction. The phosphorylation was stopped with the addition of 3 μl ADP-Glo™ reagent (stop solution) followed by a 40 min incubation. Prior to detection 6 μl of ADP-Glo™ Kinase Detection Reagent was added and the plates were read in a micro plate reader using a Luminescence filter.

Chain of recombinant human PI3Kγ (aa144-1102)-6His (P48736 144-1102): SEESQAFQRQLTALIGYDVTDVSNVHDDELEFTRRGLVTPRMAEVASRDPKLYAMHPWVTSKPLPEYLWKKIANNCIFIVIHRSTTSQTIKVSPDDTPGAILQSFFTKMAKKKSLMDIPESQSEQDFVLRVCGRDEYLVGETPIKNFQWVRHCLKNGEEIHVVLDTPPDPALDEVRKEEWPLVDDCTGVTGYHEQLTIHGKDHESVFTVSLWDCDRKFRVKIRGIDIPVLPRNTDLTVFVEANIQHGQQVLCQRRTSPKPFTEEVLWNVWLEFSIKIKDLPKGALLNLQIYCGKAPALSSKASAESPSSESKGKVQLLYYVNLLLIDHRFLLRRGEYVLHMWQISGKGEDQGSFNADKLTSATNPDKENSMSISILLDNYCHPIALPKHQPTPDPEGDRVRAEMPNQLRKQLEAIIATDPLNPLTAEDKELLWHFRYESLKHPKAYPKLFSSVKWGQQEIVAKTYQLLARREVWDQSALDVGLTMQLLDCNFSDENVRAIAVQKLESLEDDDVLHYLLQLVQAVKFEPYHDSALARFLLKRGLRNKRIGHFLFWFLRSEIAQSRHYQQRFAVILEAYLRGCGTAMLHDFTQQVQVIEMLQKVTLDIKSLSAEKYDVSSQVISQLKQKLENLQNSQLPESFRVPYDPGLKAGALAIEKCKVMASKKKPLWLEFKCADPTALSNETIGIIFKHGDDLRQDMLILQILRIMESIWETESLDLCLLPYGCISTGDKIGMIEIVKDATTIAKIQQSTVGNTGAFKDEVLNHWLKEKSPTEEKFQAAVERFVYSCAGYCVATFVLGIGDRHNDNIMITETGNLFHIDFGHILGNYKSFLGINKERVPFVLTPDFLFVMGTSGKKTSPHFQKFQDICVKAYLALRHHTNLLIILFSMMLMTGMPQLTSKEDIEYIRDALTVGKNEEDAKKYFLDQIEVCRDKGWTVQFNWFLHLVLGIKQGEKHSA

SMILES | PI3Kγ activity, pIC50
CC(=O)Nc1nc(C)c(-c2cc3c(c(S(C)(=O)=O)c2)C(=O)N(C(C)C)C3)s1 [Example 3, N-{4-Methyl-5-[7-(methylsulfonyl)-1-oxo-2-(propan-2-yl)-2,3-dihydro-1H-isoindol-5-yl]-1,3-thiazol-2-yl}acetamide] | 8.8
CC(=O)Nc1nc(C)c(-c2cc3c(c(S(=O)(=O)NC4CCC4)c2)C(=O)N([C@@H](C)C2CC2)C3)s1 [Example 10, N-(5-{7-(Cyclobutylsulfamoyl)-2-[(1S)-1-cyclopropylethyl]-1-oxo-2,3-dihydro-1H-isoindol-5-yl}-4-methyl-1,3-thiazol-2-yl)acetamide] | 8.9
CNS(=O)(=O)c1cc(-c2cnc(NC(C)=O)s2)cc2c1C(=O)N([C@@H](C)C1CC1)C2 [Example 8, N-(5-{2-[(1S)-1-Cyclopropylethyl]-7-(methylsulfamoyl)-1-oxo-2,3-dihydro-1H-isoindol-5-yl}-1,3-thiazol-2-yl)acetamide] | 9.0
CC(=O)Nc1nc(C)c(-c2cc3c(c(S(=O)(=O)NC4CC4)c2)C(=O)N([C@@H](C)C2CC2)C3)s1 [Example 14, N-(5-{2-[(1S)-1-Cyclopropylethyl]-7-(cyclopropylsulfamoyl)-1-oxo-2,3-dihydro-1H-isoindol-5-yl}-4-methyl-1,3-thiazol-2-yl)acetamide] | 9.0
CC(=O)Nc1nc(C)c(-c2cc3c(c(NS(=O)(=O)c4cn(C)nc4C)c2)C(=O)N([C@@H](C)C2CC2)C3)s1 [Example 29, N-[5-(2-[(1S)-1-Cyclopropylethyl]-7-{[(1,3-dimethyl-1H-pyrazol-4-yl)sulfonyl]amino}-1-oxo-2,3-dihydro-1H-isoindol-5-yl)-4-methyl-1,3-thiazol-2-yl]acetamide] | 8.9
CC(=O)Nc1nc(C)c(-c2cc3c(c(S(=O)(=O)N(C)C)c2)C(=O)N([C@@H](C)C2CC2)C3)s1 [Example 7, N-(5-{2-[(1S)-1-Cyclopropylethyl]-7-(dimethylsulfamoyl)-1-oxo-2,3-dihydro-1H-isoindol-5-yl}-4-methyl-1,3-thiazol-2-yl)acetamide] | 9.1
CCNS(=O)(=O)c1cc(-c2sc(NC(C)=O)nc2C)cc2c1C(=O)N([C@@H](C)C1CC1)C2 [Example 15, N-(5-{2-[(1S)-1-Cyclopropylethyl]-7-(ethylsulfamoyl)-1-oxo-2,3-dihydro-1H-isoindol-5-yl}-4-methyl-1,3-thiazol-2-yl)acetamide] | 9.4
CC(=O)Nc1ncc(-c2cc3c(c(S(C)(=O)=O)c2)C(=O)N([C@@H](C)C2CC2)C3)s1 [Example 2, N-(5-{2-[(1S)-1-Cyclopropylethyl]-7-(methylsulfonyl)-1-oxo-2,3-dihydro-1H-isoindol-5-yl}-1,3-thiazol-2-yl)acetamide] | 9.0

Same assay, conditions: 20 μM ATP, 80 μM DiC8-PIP2, 1.2 nM PI3Kγ, 15 min pre-incubation, 60 min reaction; read-out: PI3Kγ activity, pIC50 (converted)

SMILES | IC50
CC(=O)Nc1ncc(-c2cc3c(c(S(N)(=O)=O)c2)C(=O)N([C@@H](C)C2CC2)C3)s1 [Example 12, N-(5-{2-[(1S)-1-Cyclopropylethyl]-1-oxo-7-sulfamoyl-2,3-dihydro-1H-isoindol-5-yl}-1,3-thiazol-2-yl)acetamide] | 1.26 nM
CC(=O)Nc1nc(C)c(-c2cc3c(c(S(=O)(=O)NCC4(CF)CC4)c2)C(=O)N([C@@H](C)C2CC2)C3)s1 [Example 19, N-(5-{2-[(1S)-1-Cyclopropylethyl]-7-({[1-(fluoromethyl)cyclopropyl]methyl}sulfamoyl)-1-oxo-2,3-dihydro-1H-isoindol-5-yl}-4-methyl-1,3-thiazol-2-yl)acetamide] | 0.398 nM
